Experimental data taken from ChEMBL document CHEMBL3885881, “DrugMatrix”.

Species on record: Rattus norvegicus
Assay: DrugMatrix - Regimen: Daily Repeat
Format: toxicity, organism-based, Sprague-Dawley
Set-up: regimen Daily Repeat, gender Male, age 6-8 weeks
Details: in vivo, po, route oral GAVAGE, vehicle .5 % CMC; for ABSOLUTE BASOPHIL / ABSOLUTE EOSINOPHIL / ABSOLUTE LYMPHOCYTE / ABSOLUTE MONOCYTE / ABSOLUTE SEGMENTED NEUTROPHIL / BASOPHIL / EOSINOPHIL / ERYTHROCYTE COUNT / HEMATOCRIT / HEMOGLOBIN / LEUKOCYTE COUNT / LYMPHOCYTE / MEAN CORPUSCULAR HEMOGLOBIN / MEAN CORPUSCULAR HEMOGLOBIN CONCENTRATION / MEAN CORPUSCULAR VOLUME / MONOCYTE / NEUTROPHIL / NUCLEATED RED BLOOD CELLS / PLATELET COUNT: tissue Blood; for ALANINE AMINOTRANSFERASE / ALBUMIN / ALKALINE PHOSPHATASE / ASPARTATE AMINOTRANSFERASE / BLOOD UREA NITROGEN / CARBON DIOXIDE / CHLORIDE / CHOLESTEROL / CREATINE PHOSPHOKINASE / CREATININE / GLUCOSE / LACTATE DEHYDROGENASE / LIPASE / PHOSPHORUS / POTASSIUM / SODIUM / TOTAL BILIRUBIN / TOTAL PROTEIN / URIC ACID: tissue Plasma
[1] = 0 mg/kg, 72 h, dose level Control, time 3 day
[2] = 0 mg/kg, 120 h, dose level Control, time 5 day
[3] = 20 mg/kg, 72 h, dose level Low, time 3 day

SMILES: NC(=O)N1c2ccccc2CC(=O)c2ccccc21 [OXCARBAZEPINE]
- ABSOLUTE BASOPHIL [1]: 0 CELLS/uL
- ABSOLUTE EOSINOPHIL [1]: 0 CELLS/uL
- ABSOLUTE LYMPHOCYTE [1]: 12269.67 CELLS/uL
- ABSOLUTE MONOCYTE [1]: 160.33 CELLS/uL
- ABSOLUTE SEGMENTED NEUTROPHIL [1]: 970 CELLS/uL
- BASOPHIL [1]: 0%
- EOSINOPHIL [1]: 0%
- ERYTHROCYTE COUNT [1]: 5.76 x10E6/uL
- HEMATOCRIT [1]: 36.57%
- HEMOGLOBIN [1]: 14.22 G/DL
- LEUKOCYTE COUNT [1]: 13.4 x10E3/uL
- LYMPHOCYTE [1]: 91.67%
- MEAN CORPUSCULAR HEMOGLOBIN [1]: 24.67 pg
- MEAN CORPUSCULAR HEMOGLOBIN CONCENTRATION [1]: 38.85 G/DL
- MEAN CORPUSCULAR VOLUME [1]: 63.52 fL
- MONOCYTE [1]: 1.17%
- NEUTROPHIL [1]: 7.17%
- NUCLEATED RED BLOOD CELLS [1]: 0.33 /100WBC
- PLATELET COUNT [1]: 1250.83 x10E3/uL
- ALANINE AMINOTRANSFERASE [1]: 49.17 u/L
- ALBUMIN [1]: 4.33 G/DL
- ALKALINE PHOSPHATASE [1]: 378.5 u/L
- ASPARTATE AMINOTRANSFERASE [1]: 82.17 u/L
- BLOOD UREA NITROGEN [1]: 15 mg/dL
- CARBON DIOXIDE [1]: 34.33 mmol/L
- CHLORIDE [1]: 99.17 MEQ/L
- CHOLESTEROL [1]: 71.17 mg/dL
- CREATINE PHOSPHOKINASE [1]: 258.67 u/L
- CREATININE [1]: 0.18 mg/dL
- GLUCOSE [1]: 142.67 mg/dL
- LACTATE DEHYDROGENASE [1]: 154.33 u/L
- LIPASE [1]: 9 u/L
- PHOSPHORUS [1]: 11.67 mg/dL
- POTASSIUM [1]: 7.13 MEQ/L
- SODIUM [1]: 142.22 MEQ/L
- TOTAL BILIRUBIN [1]: 0.18 mg/dL
- TOTAL PROTEIN [1]: 5.77 G/DL
- URIC ACID [1]: 1.55 mg/dL
- ABSOLUTE BASOPHIL [2]: 0 CELLS/uL
- ABSOLUTE EOSINOPHIL [2]: 23.33 CELLS/uL
- ABSOLUTE LYMPHOCYTE [2]: 14943.67 CELLS/uL
- ABSOLUTE MONOCYTE [2]: 32 CELLS/uL
- ABSOLUTE SEGMENTED NEUTROPHIL [2]: 1084.33 CELLS/uL
- BASOPHIL [2]: 0%
- EOSINOPHIL [2]: 0.17%
- ERYTHROCYTE COUNT [2]: 5.71 x10E6/uL
- HEMATOCRIT [2]: 35.28%
- HEMOGLOBIN [2]: 14.27 G/DL
- LEUKOCYTE COUNT [2]: 16.08 x10E3/uL
- LYMPHOCYTE [2]: 93%
- MEAN CORPUSCULAR HEMOGLOBIN [2]: 25.02 pg
- MEAN CORPUSCULAR HEMOGLOBIN CONCENTRATION [2]: 40.43 G/DL
- MEAN CORPUSCULAR VOLUME [2]: 61.82 fL
- MONOCYTE [2]: 0.17%
- NEUTROPHIL [2]: 6.67%
- NUCLEATED RED BLOOD CELLS [2]: 0.33 /100WBC
- PLATELET COUNT [2]: 1274 x10E3/uL
- ALANINE AMINOTRANSFERASE [2]: 54.17 u/L
- ALBUMIN [2]: 4.22 G/DL
- ALKALINE PHOSPHATASE [2]: 373.17 u/L
- ASPARTATE AMINOTRANSFERASE [2]: 81.83 u/L
- BLOOD UREA NITROGEN [2]: 16.67 mg/dL
- CARBON DIOXIDE [2]: 30.33 mmol/L
- CHLORIDE [2]: 99 MEQ/L
- CHOLESTEROL [2]: 71 mg/dL
- CREATINE PHOSPHOKINASE [2]: 273.5 u/L
- CREATININE [2]: 0.22 mg/dL
- GLUCOSE [2]: 141.83 mg/dL
- LACTATE DEHYDROGENASE [2]: 153.67 u/L
- LIPASE [2]: 10.33 u/L
- PHOSPHORUS [2]: 11.38 mg/dL
- POTASSIUM [2]: 7.08 MEQ/L
- SODIUM [2]: 142.75 MEQ/L
- TOTAL BILIRUBIN [2]: 0.18 mg/dL
- TOTAL PROTEIN [2]: 6.1 G/DL
- URIC ACID [2]: 1.67 mg/dL
- ABSOLUTE BASOPHIL [3]: 0 CELLS/uL
- ABSOLUTE EOSINOPHIL [3]: 39.67 CELLS/uL
- ABSOLUTE LYMPHOCYTE [3]: 12910 CELLS/uL
- ABSOLUTE MONOCYTE [3]: 169.33 CELLS/uL
- ABSOLUTE SEGMENTED NEUTROPHIL [3]: 1314.33 CELLS/uL
- BASOPHIL [3]: 0%
- EOSINOPHIL [3]: 0.33%
- ERYTHROCYTE COUNT [3]: 5.51 x10E6/uL
- HEMATOCRIT [3]: 35.53%
- HEMOGLOBIN [3]: 14 G/DL
- LEUKOCYTE COUNT [3]: 14.43 x10E3/uL
- LYMPHOCYTE [3]: 90%
- MEAN CORPUSCULAR HEMOGLOBIN [3]: 25.43 pg
- MEAN CORPUSCULAR HEMOGLOBIN CONCENTRATION [3]: 39.43 G/DL
- MEAN CORPUSCULAR VOLUME [3]: 64.5 fL
- MONOCYTE [3]: 1.33%
- NEUTROPHIL [3]: 8.33%
- NUCLEATED RED BLOOD CELLS [3]: 0.33 /100WBC
- PLATELET COUNT [3]: 1357.67 x10E3/uL
- ALANINE AMINOTRANSFERASE [3]: 55.67 u/L
- ALBUMIN [3]: 4.33 G/DL
- ALKALINE PHOSPHATASE [3]: 378.33 u/L
- ASPARTATE AMINOTRANSFERASE [3]: 87.67 u/L
- BLOOD UREA NITROGEN [3]: 12.67 mg/dL
- CARBON DIOXIDE [3]: 27.33 mmol/L
- CHLORIDE [3]: 103 MEQ/L
- CHOLESTEROL [3]: 73.33 mg/dL
- CREATINE PHOSPHOKINASE [3]: 333.33 u/L
- CREATININE [3]: 0.24 mg/dL
- GLUCOSE [3]: 150.67 mg/dL
- LACTATE DEHYDROGENASE [3]: 316 u/L
- LIPASE [3]: 10 u/L
- PHOSPHORUS [3]: 13.2 mg/dL
- POTASSIUM [3]: 7.12 MEQ/L
- SODIUM [3]: 146.57 MEQ/L
- TOTAL BILIRUBIN [3]: 0.2 mg/dL
- TOTAL PROTEIN [3]: 5.93 G/DL
- URIC ACID [3]: 2.37 mg/dL
